Where “and” joins values, the source holds several entries; their conditions need not be identical. Equal values may be shown once.
Tests used:
[1] = test system: RAT-1 fibroblasts transfected with expression vector alone; experiment: Focus formation in RAT-1 fibroblasts transfected with expression vector alone; assay type: cell-based
Description: (§1) Transfection was carried out as follows: RAT-1 fibroblasts were seeded at a density of 2×10^5 cells in Dulbecco's modified Eagle's medium (DMEM) (Gibco) containing 5% fetal bovine serum (FBS) in 100 mm dishes. Cells were grown overnight, then transfected with 10 μg of DNA (expression vector alone [pZIP-NeoSV(X)1] or containing the α1B-ADR, α1B -ADR mutant [discussed in Example 3 below] or activated Ha-ras c-DNAs) by calcium phosphate precipitation (B. Cullen, Methods Enzymol. 152, 684 (1987)). The α1B -ADR used herein was the hamster α1B -ADR described in S. Cotecchia et al., Proc. Natl. Acad. Sci. USA 85, 7159-7163 (1988). After 16 hours, the DNA precipitate was removed, the cells washed and grown for 24 hours in complete medium. Cells were split 1:5, allowed to attach overnight and then cultured in DMEM with 5% FBS alone, supplemented with 10 μM norepinephrine (NE) or G418 (300 μg/ml). Dishes were supplemented with NE daily, and fed every 3 days with fresh medium.
(§2) ^1 Cells were cultured for 3 weeks in the presence or absence of 10
(§3) μM norepinephrine (NE), supplemented daily, in medium containing 5%
(§4) FBS. The number of transformed foci were scored after 4 weeks of culture.
(§5) Results represent the average duplicate determinations from two
(§6) independent experiments which agreed within 25%; nd = not determined. […]
(§7) growth, the number of foci was scored. […]

[2] = test system: RAT-1 fibroblasts transfected with ras c-DNA; experiment: Focus formation in RAT-1 fibroblasts transfected with activated Ha-ras c-DNA; assay type: cell-based
Description: as §1, §2, §3, §4, §5, §6, §7

[3] = test system: NIH 3T3 fibroblasts transfected with α1B ADR; experiment: Focus formation in NIH 3T3 fibroblasts transfected with α1B-ADR c-DNA; assay type: cell-based; settings: NIH 3T3 transfected with α1B ADR; 10 μM NE supplemented daily, 5% FBS (Table 1)
[4] = test system: NIH 3T3 fibroblasts transfected with ras c-DNA; experiment: Focus formation in NIH 3T3 fibroblasts transfected with ras c-DNA; assay type: cell-based; settings: NIH 3T3 transfected with ras; 10 μM NE supplemented daily, 5% FBS (Table 1)
Description: as §1, with “Dishes were supplemented with NE daily, and fed every 3 days with fresh medium.” left out
After transfection of plasmid DNA into RAT-1 fibroblasts, no change in phenotype or focal cell overgrowth was observed after 4 weeks in culture in the absence of added agonist (FIG. 1A). […] Agonist-induced foci represented approximately 15-25% of transfected clones with the number of G418 resistant colonies (40-60/dish) assessed in duplicate transfections. […]
FBS. The number of transformed foci were scored after 4 weeks of culture. […]
independent experiments which agreed within 25%; nd = not determined.

α1B ADR mutant = molecular target: T1, α1B ADR mutant (Mesocricetus auratus, UniProt P18841, A293L/K290H/R288K); experiment: NE stimulated PI hydrolysis in RAT-1 cell lines expressing the α1B ADR mutant; assay type: cell-based, hamster
T1 construct: expressed in transfected cells; host or cells: RAT-1 fibroblasts (vector pZIP-NeoSV(X)1), focus-derived, G418-selected lines
T1 sequence (P18841 1-515 R288K/K290H/A293L): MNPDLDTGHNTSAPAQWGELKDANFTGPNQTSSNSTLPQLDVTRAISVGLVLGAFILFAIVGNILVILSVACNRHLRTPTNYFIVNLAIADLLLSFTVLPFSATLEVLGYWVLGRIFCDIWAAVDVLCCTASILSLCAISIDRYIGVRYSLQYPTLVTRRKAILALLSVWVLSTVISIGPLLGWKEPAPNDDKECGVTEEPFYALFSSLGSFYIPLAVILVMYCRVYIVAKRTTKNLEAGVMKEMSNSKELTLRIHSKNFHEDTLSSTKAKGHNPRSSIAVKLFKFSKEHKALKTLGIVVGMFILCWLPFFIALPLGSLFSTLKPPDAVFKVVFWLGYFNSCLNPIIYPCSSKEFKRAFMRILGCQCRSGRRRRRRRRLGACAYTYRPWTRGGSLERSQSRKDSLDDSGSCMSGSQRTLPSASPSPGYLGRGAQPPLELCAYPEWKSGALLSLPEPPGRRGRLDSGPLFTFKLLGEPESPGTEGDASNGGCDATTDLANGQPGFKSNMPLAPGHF
Description: In Table 3, RAT-1 fibroblast cell lines transfected with expression vector alone or derived from transformed foci (α1B ADR or α1B ADR mutant) were selected with G418 (300 μg/ml). Ligand binding was performed on membranes prepared from two clones of each in accordance with known techniques (S. Cotecchia et al., Life Sci. 37, 2389 (1986)). For saturation binding analysis, [^125 ] HEAT concentrations ranged from 10 to 500 pM, nonspecific binding was determined using 1 μM prazosin; in competition experiments, the radioligand concentration was 100 pM. Ligand binding parameters were determined using computerized iterative nonlinear regression analysis (P. Munson, Methods in Enzymol. 92, 5432 (1983)). For assessment of receptor coupling to PI hydrolysis, cells were plated in 30 mm dishes, and labeled overnight with 3 μCi/ml of myo-[2-^3 II(N)]-inositol (1Ci=37 GBq; NEN Research Products) in DMEM containing 3.3% FBS in accordance with known techniques (S. Cotecchia et al., Proc. Natl. Acad. Sci. USA 87, 2896 (1990)). After 40 minute stimulation of cells with 10 μM norepinephrine (NE), inositol phosphates were extracted, and separated on AG 1-X8 anion exchange columns (BioRad Labs) in accordance with known techniques (S. Cotecchia et al., Proc. Natl. Acad. Sci. USA 87, 2896 (1990)). Total inositol phosphates were eluted with 1M ammonium formate/0.1M formic acid. […]

## NC[C@H](O)c1ccc(O)c(O)c1 [NE, norepinephrine]
[1]; RAT-1 cell lines transfected with vector alone, 10 μM NE, 3 weeks of growth, two clones (Table 2)
  Foci No. +NE: 0
[1]; RAT-1 transfected with vector alone, 10 μM NE supplemented daily, 5% FBS (Table 1)
  Foci No. +NE: 0
[2]; RAT-1 transfected with ras, 10 μM NE supplemented daily, 5% FBS (Table 1)
  Foci No. +NE: 197
[2]; focus derived RAT-1 cell lines, ras, 10 μM NE, 3 weeks of growth, two clones (Table 2)
  Foci No. +NE: > 500 and 460
[3]
  Foci No. +NE: 85
[4]
  Foci No. +NE: 180
α1B ADR mutant; 10 μM NE, 40 minute, increase of total labeled inositol phosphates over basal, two clones
  NE Stimulated PI Hydrolysis Rmax: 861 % increase and 954 % increase
α1B ADR mutant; cell lines expressing the α1B-ADR mutant
  increase in inositol phosphates induced by NE: 900 to 1000%

— patent US5573908A, “Adrenergic receptor as a proto-oncogene” (Duke University, priority 1993, dated 1996)
